We go through 14 compounds from US12448369B2 (Edgewise Therapeutics, Inc., priority 2023, dated 2025).

In experiment [1] the target is T1, Porcine ventricle myofibrils (ventricular myosin ATPase) (Sus scrofa, UniProt P79293).
T1 construct: Myofibrils from porcine cardiac muscle was isolated from the left ventricle of Yucatan minipigs; tissue Exemplar Genetics; host or cells: left ventricle of Yucatan minipigs, myofibrils prepared in house
Nature of the experiment: Myofibril ATPase assay, porcine ventricle myofibrils. It is filed as biochemical, porcine (Yucatan minipigs). To be noted: porcine ventricle myofibrils. The gist of the method: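 Test compounds acted on myofibrils isolated from the left ventricle of Yucatan minipigs. ADP formation was coupled via pyruvate kinase/lactate dehydrogenase to NADH oxidation, monitored kinetically at 340 nm over 75 min. Rates relative to vehicle were fitted with a 4-parameter logistic model, reported as Y75 (25% inhibition) or Y125 (activation) concentrations.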

Experiment [2] relates to Rabbit Psoas myofibrils (skeletal myosin ATPase). Nature of the experiment: Myofibril ATPase assay, rabbit psoas (skeletal) myofibrils. It is filed as biochemical. The note with it: rabbit psoas myofibrils. A digest of the protocol: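 Rabbit psoas skeletal myofibrils in PIPES/CaCl2/EGTA pCa buffer, pH 7.0. ATPase rate followed by PK-LDH-coupled NADH loss at 340 nm, read every 1.5–2 min for 75 min. Slopes normalized to vehicle (100%) and fitted to a 4-parameter logistic; values are Y75 (25% inhibition) or Y125 (25% activation) concentrations.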

The test system of experiment [3] is Porcine atria myofibrils (atrial myosin ATPase). Nature of the experiment: Myofibril ATPase assay, porcine atria myofibrils. To be noted: porcine atria myofibrils. It is filed as biochemical. The gist of the method:
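Coupled PK-LDH reaction links ADP from myosin ATPase to NADH loss, read at 340 nm every 1.5-2 min for 75 min. Slopes (mAU/min) normalized to vehicle-only wells (100%) and fit to a 4-parameter logistic; Y75 is the concentration cutting activity by 25%, Y125 is reported for activators.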

Where [4] appears, read: Y75 value (75% activity relative to no compound).

T1 sequence (P79293 whole entry): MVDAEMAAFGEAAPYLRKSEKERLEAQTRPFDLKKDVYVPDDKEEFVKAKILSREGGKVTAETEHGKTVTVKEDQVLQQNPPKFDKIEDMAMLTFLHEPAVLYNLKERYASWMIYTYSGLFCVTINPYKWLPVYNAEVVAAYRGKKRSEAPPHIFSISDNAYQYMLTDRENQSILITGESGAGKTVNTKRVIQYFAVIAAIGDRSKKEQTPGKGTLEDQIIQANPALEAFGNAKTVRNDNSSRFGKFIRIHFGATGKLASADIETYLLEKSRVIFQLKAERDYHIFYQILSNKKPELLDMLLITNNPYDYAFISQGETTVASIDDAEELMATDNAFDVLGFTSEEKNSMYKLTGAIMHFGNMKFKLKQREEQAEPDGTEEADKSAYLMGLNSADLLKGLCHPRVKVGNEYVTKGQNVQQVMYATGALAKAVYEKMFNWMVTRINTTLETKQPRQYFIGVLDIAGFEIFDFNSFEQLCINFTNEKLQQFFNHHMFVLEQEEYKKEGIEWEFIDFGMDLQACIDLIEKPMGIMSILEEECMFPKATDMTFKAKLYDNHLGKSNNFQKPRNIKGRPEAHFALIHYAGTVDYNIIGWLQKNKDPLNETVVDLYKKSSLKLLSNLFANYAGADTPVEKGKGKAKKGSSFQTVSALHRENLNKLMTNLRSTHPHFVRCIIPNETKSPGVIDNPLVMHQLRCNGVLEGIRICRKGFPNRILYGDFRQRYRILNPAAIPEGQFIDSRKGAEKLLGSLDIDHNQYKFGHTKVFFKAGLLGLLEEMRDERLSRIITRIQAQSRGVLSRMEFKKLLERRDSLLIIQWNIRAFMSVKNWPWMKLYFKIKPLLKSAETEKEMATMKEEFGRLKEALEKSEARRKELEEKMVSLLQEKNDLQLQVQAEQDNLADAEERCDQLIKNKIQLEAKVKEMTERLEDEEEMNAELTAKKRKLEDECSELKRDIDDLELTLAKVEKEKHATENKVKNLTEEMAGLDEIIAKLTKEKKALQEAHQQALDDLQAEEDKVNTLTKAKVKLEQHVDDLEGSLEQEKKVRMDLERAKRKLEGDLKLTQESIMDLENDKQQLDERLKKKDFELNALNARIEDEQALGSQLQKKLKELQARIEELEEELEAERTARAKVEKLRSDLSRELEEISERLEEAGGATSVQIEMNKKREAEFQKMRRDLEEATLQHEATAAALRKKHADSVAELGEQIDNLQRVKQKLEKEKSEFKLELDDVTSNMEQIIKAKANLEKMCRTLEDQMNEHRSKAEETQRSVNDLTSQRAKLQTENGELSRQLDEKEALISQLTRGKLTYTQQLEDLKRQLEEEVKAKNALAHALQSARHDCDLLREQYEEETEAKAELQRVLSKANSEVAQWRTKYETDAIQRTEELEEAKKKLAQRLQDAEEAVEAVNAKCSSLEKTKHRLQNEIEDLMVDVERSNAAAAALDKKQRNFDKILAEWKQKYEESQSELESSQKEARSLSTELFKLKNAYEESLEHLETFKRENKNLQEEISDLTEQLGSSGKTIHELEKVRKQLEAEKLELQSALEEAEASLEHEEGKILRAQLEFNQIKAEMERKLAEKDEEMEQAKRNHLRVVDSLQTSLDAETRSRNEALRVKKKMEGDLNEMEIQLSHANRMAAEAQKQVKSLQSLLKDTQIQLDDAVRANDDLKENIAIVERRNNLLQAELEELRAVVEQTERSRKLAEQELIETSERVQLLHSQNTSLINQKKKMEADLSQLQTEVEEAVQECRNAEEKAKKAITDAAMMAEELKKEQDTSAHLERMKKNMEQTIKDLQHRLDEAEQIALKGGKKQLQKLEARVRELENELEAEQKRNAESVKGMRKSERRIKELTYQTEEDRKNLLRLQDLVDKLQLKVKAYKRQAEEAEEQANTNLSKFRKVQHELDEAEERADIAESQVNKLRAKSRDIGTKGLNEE

Take `Cc1c(CC(=O)N[C@H](C)c2ncc(F)cc2F)c(=O)[nH]c2ccc(O)nc12` (single isomer, unassigned) [compound 222]: in experiment [1] (Y75 value), the “Ventricular EC25” value is 100.00 µM. In addition, in experiment [2] (Y75 value), the “Skeletal EC25” value stood at 100.00 µM. Also, in experiment [3] (setting [4]), the “Atrial EC25” value amounted to 100.00 µM.
Take `Cc1c(C(F)(F)C(=O)N[C@H](C)c2ncc(C#N)cc2F)c(=O)[nH]c2ccc(F)cc12` (single isomer, unassigned) [compound 2606]: in experiment [1] (Y75 value (no ‡ mark)), the “Ventricular EC25” value was 0.77 µM. Besides, in experiment [2] (Y75 value (no ‡ mark)), the “Skeletal EC25” value was 0.10 µM. Besides, the “Atrial EC25” value in experiment [3] (Y75 value (no ‡ mark)) came to 0.08 µM.
Take `Cc1c(C2(C(=O)N[C@H](C)c3ncc(C#N)cc3F)CC2)c(=O)[nH]c2cccc(C#N)c12` (single isomer, unassigned) [compound 2541]: the “Ventricular EC25” value in experiment [1] (Y75 value (no ‡ mark)) is 0.70 µM. Further, in experiment [2] (Y75 value (no ‡ mark)), the “Skeletal EC25” value stood at 0.85 µM. For the same compound, in experiment [3] (Y75 value (no ‡ mark)), the “Atrial EC25” value came out at 0.33 µM.
In the same order, the values of `CCc1c(CC(=O)N[C@@H](C)c2ccc(F)cc2F)c(=O)[nH]c2ccccc12` [compound 126] are 0.49 µM, 0.03 µM and 0.06 µM.
As to `C[C@@H](NC(=O)Cc1cc2cc(F)c(F)cc2[nH]c1=O)c1ccc(C#N)cn1` [compound 1114], in experiment [1] (Y75 value (no ‡ mark)), the “Ventricular EC25” value came to 8.08 µM. The “Skeletal EC25” value in experiment [2] (Y75 value (no ‡ mark)) stood at 22.82 µM. In addition, the “Atrial EC25” value in experiment [3] (Y75 value (no ‡ mark)) came out at 8.40 µM.
Regarding `N#Cc1cnc2c(c1)OC[C@H]2NC(=O)Cc1cc2c(F)c(F)ccc2[nH]c1=O` (single isomer, unassigned) [compound 13], in experiment [1] (Y75 value (no ‡ mark)), the “Ventricular EC25” value was determined as 0.09 µM. In addition, the “Skeletal EC25” value in experiment [2] (Y75 value (no ‡ mark)) is 0.05 µM. In experiment [3] (Y75 value (no ‡ mark)), the “Atrial EC25” value worked out at 0.32 µM.
For the compound `Cc1c(CC(=O)N[C@H]2COc3cccnc32)c(=O)[nH]c2ccnc(C#N)c12` (single isomer, unassigned) [compound 213], the “Ventricular EC25” value in experiment [1] (Y75 value) was 100.00 µM. Besides, in experiment [2] (Y75 value), the “Skeletal EC25” value stood at 7.67 µM. The “Atrial EC25” value in experiment [3] (setting [4]) is 100.00 µM.
With `C[C@H](NC(=O)[C@@H](C)c1c(C(F)(F)F)c2c(F)cccc2[nH]c1=O)c1ccc(F)cc1F` (single isomer, unassigned) [compound 97], the “Ventricular EC25” value in experiment [1] (Y75 value (no ‡ mark)) was found to be 5.34 µM. Also, the “Skeletal EC25” value in experiment [2] (Y75 value (no ‡ mark)) was 0.23 µM. Further, the “Atrial EC25” value in experiment [3] (Y75 value (no ‡ mark)) amounted to 0.19 µM.
`C[C@@H](NC(=O)C1(c2cc3c(F)c(F)ccc3[nH]c2=O)CC1)c1ncc(C#N)cn1` (single isomer, unassigned) [compound 2549]: in experiment [1] (Y75 value (no ‡ mark)), the “Ventricular EC25” value was 100.00 µM. Also, the “Skeletal EC25” value in experiment [2] (Y75 value (no ‡ mark)) came to 7.56 µM. In experiment [3] (Y75 value (no ‡ mark)), the “Atrial EC25” value is 0.97 µM.
`C[C@H](NC(=O)C(F)(F)c1cc2c(F)c(F)ccc2[nH]c1=O)c1cccc(C#N)n1` (single isomer, unassigned) [compound 2572]: the “Ventricular EC25” value in experiment [1] (‡ Y125 value, not a Y75 value (125% activity relative to no compound)) is listed as 100.00‡ μM. For the same compound, the “Skeletal EC25” value in experiment [2] (Y75 value (no ‡ mark)) came out at 100.00 µM. Moreover, the “Atrial EC25” value in experiment [3] (Y75 value (no ‡ mark)) was 100.00 µM.
As for `Cc1ccc([C@H](C)NC(=O)Cc2c(C)c3c(C)nccc3[nH]c2=O)cc1` (single isomer, unassigned) [compound 306], the “Ventricular EC25” value in experiment [1] (Y75 value) was found to be 100.00 µM. In experiment [2] (Y75 value), the “Skeletal EC25” value is 5.05 µM. Moreover, in experiment [3] (setting [4]), the “Atrial EC25” value turned out to be 11.75 µM.
Take `Cc1nccc2[nH]c(=O)c(CC(=O)N[C@@H](C)c3cccnc3O)c(C)c12` (single isomer, unassigned) [compound 307]: in experiment [1] (Y75 value), the “Ventricular EC25” value was determined as 100.00 µM. Also, in experiment [2] (Y75 value), the “Skeletal EC25” value was determined as 100.00 µM. Further, in experiment [3] (setting [4]), the “Atrial EC25” value came to 100.00 µM.
Turning to `Cc1c(CC(=O)N[C@@H](C)c2ccc(C#N)nn2)c(=O)[nH]c2ccc(F)cc12` [compound 1120], the “Ventricular EC25” value in experiment [1] (Y75 value (no ‡ mark)) was determined as 10.61 µM. Besides, the “Skeletal EC25” value in experiment [2] (Y75 value (no ‡ mark)) was 2.90 µM. The “Atrial EC25” value in experiment [3] (Y75 value (no ‡ mark)) is 2.58 µM.
As for `C[C@H](NC(=O)Cc1c(C2CC2)c2cc(F)ccc2[nH]c1=O)c1ccc(F)cc1F` [compound 114], the “Ventricular EC25” value in experiment [1] (Y75 value (no ‡ mark)) was found to be 4.54 µM. In experiment [2] (Y75 value (no ‡ mark)), the “Skeletal EC25” value came out at 0.06 µM. In addition, in experiment [3] (Y75 value (no ‡ mark)), the “Atrial EC25” value stood at 3.86 µM.
